In ChEMBL document CHEMBL1909046, “DrugMatrix in vitro pharmacology data” one finds IC50 and Ki data, which are given here for 25 compounds.

The target of assay [1] is T1, Alpha-2C adrenergic receptor (Homo sapiens, UniProt P18825).
T1 sequence (P18825 whole entry): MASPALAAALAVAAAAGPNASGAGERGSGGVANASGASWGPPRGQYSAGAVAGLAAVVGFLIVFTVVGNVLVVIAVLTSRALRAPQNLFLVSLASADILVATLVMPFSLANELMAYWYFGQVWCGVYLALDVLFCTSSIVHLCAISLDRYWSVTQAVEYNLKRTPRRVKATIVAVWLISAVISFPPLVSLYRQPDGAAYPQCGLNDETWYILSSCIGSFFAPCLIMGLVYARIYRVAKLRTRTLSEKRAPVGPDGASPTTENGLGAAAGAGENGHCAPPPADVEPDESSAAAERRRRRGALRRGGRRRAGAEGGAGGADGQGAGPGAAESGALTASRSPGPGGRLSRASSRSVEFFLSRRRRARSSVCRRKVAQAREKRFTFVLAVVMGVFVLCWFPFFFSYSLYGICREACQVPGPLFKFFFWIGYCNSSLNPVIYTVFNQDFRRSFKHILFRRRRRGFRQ
As to the kind of experiment: DRUGMATRIX: Adrenergic Alpha-2C radioligand binding (ligand: [3H] MK-912). Type of assay: cell membranes, Sf9, Membrane.

The target of another assay is T2, Substance-K receptor (Homo sapiens, UniProt P21452). Also: in other assays of this panel Not Active means under 50% inhibition at 10 µM.
T2 sequence (P21452 whole entry): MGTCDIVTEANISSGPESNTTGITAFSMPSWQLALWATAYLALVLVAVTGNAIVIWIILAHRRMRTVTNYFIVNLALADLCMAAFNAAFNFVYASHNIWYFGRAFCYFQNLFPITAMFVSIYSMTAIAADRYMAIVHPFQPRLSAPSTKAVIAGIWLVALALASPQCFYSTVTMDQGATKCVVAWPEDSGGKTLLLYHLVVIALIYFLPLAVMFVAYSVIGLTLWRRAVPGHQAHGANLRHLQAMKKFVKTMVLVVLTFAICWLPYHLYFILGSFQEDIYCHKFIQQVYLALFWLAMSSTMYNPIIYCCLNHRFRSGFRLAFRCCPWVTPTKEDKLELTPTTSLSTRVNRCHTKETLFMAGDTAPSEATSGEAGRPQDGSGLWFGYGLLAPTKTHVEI
Type of assay: cell membranes, CHO, Membrane. The conditions noted are these: cho.

The next assay deals with Histamine H2 receptor (Homo sapiens, UniProt P25021). The assay is classed as cell membranes, CHO-K1, Membrane. The conditions noted are these: cho-k1.
Histamine H2 receptor, sequence (P25021 whole entry): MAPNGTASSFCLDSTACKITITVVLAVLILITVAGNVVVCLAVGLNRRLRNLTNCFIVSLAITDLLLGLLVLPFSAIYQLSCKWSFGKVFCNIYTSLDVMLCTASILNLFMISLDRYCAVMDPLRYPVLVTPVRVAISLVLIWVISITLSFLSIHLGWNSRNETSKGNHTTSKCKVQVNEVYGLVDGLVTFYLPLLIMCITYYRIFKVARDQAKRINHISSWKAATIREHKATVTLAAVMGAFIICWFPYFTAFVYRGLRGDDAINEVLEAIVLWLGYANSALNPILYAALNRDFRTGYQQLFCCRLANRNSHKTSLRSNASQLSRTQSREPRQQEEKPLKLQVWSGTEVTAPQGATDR
Another assay concerns the target Mu-type opioid receptor (Homo sapiens, UniProt P35372). As to the kind of experiment: DRUGMATRIX: Opiate mu (OP3, MOP) radioligand binding (ligand: [3H] Diprenorphine). The assay is classed as cell membranes, CHO-K1, Membrane. The conditions noted are these: Not Active = under 50% inhibition at 10 µM.
The target in assay [2] is Tyrosine-protein kinase Lck (Homo sapiens, UniProt P06239). The experiment in a line: DRUGMATRIX: Protein Tyrosine Kinase, LCK enzyme inhibition (substrate: Poly(Glu:Tyr)). The assay is classed as cell-based, Insect cells. The conditions noted are these: insect cells; Not Active = under 50% inhibition at 10 µM.
Tyrosine-protein kinase Lck, sequence (P06239 whole entry): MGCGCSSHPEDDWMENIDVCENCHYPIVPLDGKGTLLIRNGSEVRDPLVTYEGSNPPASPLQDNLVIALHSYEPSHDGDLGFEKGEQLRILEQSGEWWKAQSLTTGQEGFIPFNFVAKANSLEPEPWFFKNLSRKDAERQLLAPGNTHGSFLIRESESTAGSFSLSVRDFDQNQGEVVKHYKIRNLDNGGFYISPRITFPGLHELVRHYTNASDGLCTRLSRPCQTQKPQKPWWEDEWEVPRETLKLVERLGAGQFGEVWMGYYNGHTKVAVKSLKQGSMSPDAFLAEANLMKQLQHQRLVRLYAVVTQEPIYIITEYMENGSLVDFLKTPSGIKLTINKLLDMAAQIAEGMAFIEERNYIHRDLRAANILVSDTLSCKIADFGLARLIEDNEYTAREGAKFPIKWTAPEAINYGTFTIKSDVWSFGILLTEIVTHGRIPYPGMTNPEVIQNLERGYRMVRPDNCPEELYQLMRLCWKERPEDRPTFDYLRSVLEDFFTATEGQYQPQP

Mu-type opioid receptor, sequence (P35372 whole entry): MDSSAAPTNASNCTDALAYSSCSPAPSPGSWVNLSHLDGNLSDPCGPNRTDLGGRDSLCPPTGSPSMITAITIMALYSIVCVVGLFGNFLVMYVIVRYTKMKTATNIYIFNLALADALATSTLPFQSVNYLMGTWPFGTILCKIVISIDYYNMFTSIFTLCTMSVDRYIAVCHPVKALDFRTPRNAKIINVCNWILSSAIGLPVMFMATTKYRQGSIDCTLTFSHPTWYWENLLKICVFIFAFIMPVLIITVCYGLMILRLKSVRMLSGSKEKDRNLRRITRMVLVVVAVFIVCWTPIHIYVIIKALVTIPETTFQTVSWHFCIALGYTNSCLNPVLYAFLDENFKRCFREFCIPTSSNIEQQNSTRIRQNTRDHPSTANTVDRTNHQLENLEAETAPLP

`CCCNC(=O)NS(=O)(=O)c1ccc(Cl)cc1` [CHLORPROPAMIDE]: the half-inhibitory concentration (IC50) entry (in assay [1] (sf9); at Substance-K receptor; at Histamine H2 receptor; at Mu-type opioid receptor (cho-k1); in assay [2]) was “Not Active” throughout.
`NS(=O)(=O)c1cc(C2(O)NC(=O)c3ccccc32)ccc1Cl` (configuration not stated) [CHLORTHALIDONE]: the IC50 result (in assay [1] (sf9); on Substance-K receptor; at Histamine H2 receptor; at Mu-type opioid receptor (cho-k1); in assay [2]) was “Not Active” throughout.
On to `O=C(O)CC(O)(CC(=O)O)C(=O)O` [CITRIC ACID], for which the IC50 result (in assay [1] (sf9); on Substance-K receptor; at Histamine H2 receptor; at Mu-type opioid receptor (cho-k1); in assay [2]) was “Not Active” each time.
In the case of `CC(C)NCC(O)c1ccccc1Cl` (configuration not stated) [CLORPRENALINE], the IC50 result (in assay [1] (sf9); on Substance-K receptor; against Histamine H2 receptor; at Mu-type opioid receptor (cho-k1); in assay [2]) was “Not Active” each time.
With `CN1CCN(C(c2ccccc2)c2ccccc2)CC1` [CYCLIZINE], the IC50 entry (in assay [1] (sf9); against Substance-K receptor; on Histamine H2 receptor; at Mu-type opioid receptor (cho-k1); in assay [2]) was “Not Active” each time.
Take `CN1C[C@@H]2C[C@H]1CN2c1cc2c(cc1F)c(=O)c(C(=O)O)cn2C1CC1` [DANOFLOXACIN]: the IC50 result (in assay [1] (sf9); against Substance-K receptor; on Histamine H2 receptor; at Mu-type opioid receptor (cho-k1); in assay [2]) was “Not Active” in each case.
Consider `COc1cccc2c1C(=O)c1c(O)c3c(c(O)c1C2=O)C[C@@](O)(C(C)=O)C[C@@H]3O[C@H]1C[C@H](N)[C@H](O)[C@H](C)O1` [DAUNORUBICIN], for which the IC50 result (in assay [1] (sf9); against Substance-K receptor; on Histamine H2 receptor; at Mu-type opioid receptor (cho-k1); in assay [2]) was “Not Active” in each case.
Consider `O=C(O)c1cc(-c2ccc(F)cc2F)ccc1O` [DIFLUNISAL], for which the IC50 result (in assay [1] (sf9); on Substance-K receptor; against Histamine H2 receptor; at Mu-type opioid receptor (cho-k1); in assay [2]) was “Not Active” throughout.
Consider `C[S+](C)[O-]` [DIMETHYL SULFOXIDE], for which the IC50 result (in assay [1] (sf9); at Substance-K receptor; against Histamine H2 receptor; on Mu-type opioid receptor (cho-k1); in assay [2]) was “Not Active” throughout.
Consider `CC1=NN(c2ccccc2)C(=O)C1` [EDARAVONE], for which the IC50 result (in assay [1] (sf9); at Substance-K receptor; against Histamine H2 receptor; at Mu-type opioid receptor (cho-k1); in assay [2]) was “Not Active” each time.
Regarding `CC(C)C[C@H]1C(=O)N2CCC[C@H]2[C@]2(O)O[C@](NC(=O)[C@@H]3C=C4c5cccc6[nH]cc(c56)C[C@H]4N(C)C3)(C(C)C)C(=O)N12` [ERGOCRYPTINE], the IC50 (commonly the point on the concentration scale where inhibition reaches its midpoint) is 38 nM in assay [1] (read-out: IC50); “Not Active” against Substance-K receptor; “Not Active” against Histamine H2 receptor; 2430 nM at Mu-type opioid receptor (read-out: IC50); “Not Active” in assay [2]. Moreover, the figures for the Ki (in assay [1] (read-out: Ki); on Mu-type opioid receptor) were 5.48 nM and 985 nM, respectively.
With `C[C@]12CC[C@@H]3c4ccc(O)cc4CC[C@H]3[C@@H]1C[C@@H](O)[C@@H]2O` [ESTRIOL], the IC50 result (in assay [1] (sf9); at Substance-K receptor; at Histamine H2 receptor; at Mu-type opioid receptor (cho-k1); in assay [2]) was “Not Active” each time.
`C#C[C@]1(O)CC[C@H]2[C@@H]3CCC4=CC(=O)CC[C@]4(C)[C@H]3CC[C@@]21C` [ETHISTERONE]: the IC50 result (in assay [1] (sf9); against Substance-K receptor; at Histamine H2 receptor; at Mu-type opioid receptor (cho-k1); in assay [2]) was “Not Active” in each case.
Consider `CC(O)(P(=O)(O)O)P(=O)(O)O` [ETIDRONIC ACID], for which the IC50 result (in assay [1] (sf9); on Substance-K receptor; at Histamine H2 receptor; on Mu-type opioid receptor (cho-k1); in assay [2]) was “Not Active” each time.
As to `CC(C)(C(=O)O)c1ccc(C(O)CCCN2CCC(C(O)(c3ccccc3)c3ccccc3)CC2)cc1` (configuration not stated) [FEXOFENADINE], the IC50 entry (in assay [1] (sf9); on Substance-K receptor; at Histamine H2 receptor; on Mu-type opioid receptor (cho-k1); in assay [2]) was “Not Active” throughout.
`CN1CCN(c2c(F)cc3c(=O)c(C(=O)O)cn(CCF)c3c2F)CC1` [FLEROXACIN]: the IC50 result (in assay [1] (sf9); at Substance-K receptor; on Histamine H2 receptor; at Mu-type opioid receptor (cho-k1); in assay [2]) was “Not Active” in each case.
For `O=c1[nH]c(=O)n([C@H]2C[C@H](O)[C@@H](CO)O2)cc1F` [FLOXURIDINE], the IC50 entry (in assay [1] (sf9); on Substance-K receptor; against Histamine H2 receptor; at Mu-type opioid receptor (cho-k1); in assay [2]) was “Not Active” throughout.
`COC(=O)Nc1nc2cc(C(=O)c3ccc(F)cc3)ccc2[nH]1` [FLUBENDAZOLE]: the IC50 entry (in assay [1] (sf9); at Substance-K receptor; against Histamine H2 receptor; at Mu-type opioid receptor (cho-k1); in assay [2]) was “Not Active” in each case.
Regarding `CC(=O)OCC(=O)[C@@]1(O)CC[C@H]2[C@@H]3CCC4=CC(=O)CC[C@]4(C)[C@@]3(F)[C@@H](O)C[C@@]21C` [FLUDROCORTISONE ACETATE], the IC50 result (in assay [1] (sf9); on Substance-K receptor; at Histamine H2 receptor; at Mu-type opioid receptor (cho-k1); in assay [2]) was “Not Active” each time.
In the case of `CCOC(=O)c1ncn2c1CN(C)C(=O)c1cc(F)ccc1-2` [FLUMAZENIL], the IC50 entry (in assay [1] (sf9); against Substance-K receptor; on Histamine H2 receptor; on Mu-type opioid receptor (cho-k1); in assay [2]) was “Not Active” in each case.
Take `CC(=O)OCC(=O)[C@@]12OC(C)(C)O[C@@H]1C[C@H]1[C@@H]3C[C@H](F)C4=CC(=O)C=C[C@]4(C)[C@@]3(F)[C@@H](O)C[C@@]12C` [FLUOCINONIDE]: the 50% inhibitory concentration (IC50) entry (in assay [1] (sf9); on Substance-K receptor; against Histamine H2 receptor; on Mu-type opioid receptor (cho-k1); in assay [2]) was “Not Active” throughout.
On to `O=C(O)P(=O)(O)O` [FOSCARNET], for which the IC50 entry (in assay [1] (sf9); on Substance-K receptor; against Histamine H2 receptor; at Mu-type opioid receptor (cho-k1); in assay [2]) was “Not Active” in each case.
Take `Cc1ccc(C)c(OCCCC(C)(C)C(=O)O)c1` [GEMFIBROZIL]: the IC50 result (in assay [1] (sf9); on Substance-K receptor; at Histamine H2 receptor; at Mu-type opioid receptor (cho-k1); in assay [2]) was “Not Active” in each case.
Turning to `O=c1c(-c2ccc(O)cc2)coc2cc(O)cc(O)c12` [GENISTEIN], the concentration for half-maximal inhibition (IC50) result (in assay [1] (sf9); on Substance-K receptor; at Histamine H2 receptor; on Mu-type opioid receptor (cho-k1); in assay [2]) was “Not Active” in each case.
Turning to `CCC1=C(C)CN(C(=O)NCCc2ccc(S(=O)(=O)NC(=O)N[C@H]3CC[C@H](C)CC3)cc2)C1=O` [GLIMEPIRIDE], the IC50 result (in assay [1] (sf9); at Substance-K receptor; against Histamine H2 receptor; on Mu-type opioid receptor (cho-k1); in assay [2]) was “Not Active” throughout.
